Experimental data taken from US10617769B2, “Bacterium-contained hydrogel and method of making the same” (TCI Co., Ltd., priority 2016, dated 2020).
In brackets after ≈: the same amount, converted by molar mass.

Legend:
[1] = test system: S. epidermidis; test: Fermentation of PEG-monosaccharide polymers in solid agar medium with phenol red; type: cell-based, Staphylococcus epidermidis; settings: compound (+), S. epidermidis added to solid agar medium
Protocol: (§1) The experimental method is described as follows: compound A and compound B were respectively added to the solid agar media, and S. epidermidis or P. acnes were added to the media, then the bacteria were incubated, and then the color of phenol red in the media were recorded.

[2] = test system: P. acnes; test: as above; type: cell-based, Propionibacterium acnes; settings: compound (+), P. acnes added to solid agar medium
Protocol: as §1

[3] = test system: USA300; test: Minimum bactericidal concentration (MBC) assay, anti-USA300 activity of SCFAs; type: cell-based, Staphylococcus aureus; settings: USA300 10^6 CFU/mL, overnight incubation, tested 0.02 mM to 100 mM; for MBC: Staphylococcus aureus
Protocol: Experimental method: USA 300 (10^6 CFU/m L) were respectively incubated with different concentrations of butyric acid or acetic acid on 96-well microtiter plates overnight; the testing concentrations of acetic acid and butyric acid were from 0.02 mM to 100 mM, each well was respectively added 100 microliters of acetic acid or butyric acid with different concentrations. In the control groups, only PBS was added to the wells. After incubation, the USA300 was diluted 1:10^0 to 1:10^5 with PBS, 5 μl of the dilution was spread to the agar plate; after overnight incubation, colonies (CFU) on the algal plate were counted. MBC is defined as the degree of sterilization at 99.9% (greater than […] colony/mL).
Referring to FIG. 4A through FIG. 4D. FIG. 4A and FIG. 4C show the images of bacterial growth on culture plates. […] UD means undetectable.

[4] = test system: USA300; settings: in vitro and in vivo; stated as known; cited from earlier work

Structure (SMILES) | Color of phenol red in the medium [1] | Color of phenol red in the medium [2] | MBC [3] [mM] | Concentration for complete inhibition [3] [mM] | Growth of USA300 [4]
C#CCOCCOCCOCCOCCOC1OC(CO)C(O)C(O)C1O [Compound A, propargyl-PEG5-beta-D-glucose] | Yellow | Red | – | – | –
C#CCOCCOCCOCCOCCOC1OC(COC(C)=O)C(OC(C)=O)C(OC(C)=O)C1OC(C)=O [Compound B, PEG5-tetra-Ac-beta-D-glucose] | Yellow | Red | – | – | –
CC(=O)O [acetic acid] | – | – | 10 (≈ 601 µg/mL) | 50 | –
CCCC(=O)O [butyric acid] | – | – | 10 (≈ 881 µg/mL) | 50 | –
CCC(=O)O [propionic acid] | – | – | – | – | suppress the growth of USA300
